Like-named read-outs stand apart in the source and are kept apart here.
What was measured:
[1] = test system: toxicity induced by APAP; test: Liver biopsy histology (H&E) 24 h after APAP administration; assay type: in vivo, mice
Experimental: In addition, liver biopsies were performed. For histopathology, livers from individual mice were fixed in 10% formaldehyde solution and kept at room temperature until use. The tissue blocks were then embedded in paraffin, […] sections were cut and stained with hematoxylin and eosin (H&E) for morphological examination. […] Improved liver architecture with no evidence for cellular damage and necrosis can be seen in all treated groups.

[2] = test system: toxicity induced by APAP; conditions: for effect on liver enzymes serum levels: Example 2, Tables 3 and 4, 0.1-0.4 mg/mouse with APAP 4 mg; for beneficial effect on acetaminophen-induced liver toxicity: mice, administered together with, or following, large dosage of acetaminophen
Experimental: IB was tested for its effect on toxicity induced by APAP in comparison to NAC using the following procedure: Mice were allocated into four groups of six mice each, as described in Table 1 below. The mice received sub-lethal hepatotoxic doses of APAP, causing liver damage equivalent to consumption of approximately 10 gr APAP (20 caplets of 500 mg) per 70 kg man.
Food was taken on the afternoon (18:00) of Day 0. Mice were orally administered APAP, APAP+IB or APAP+NAC 15 h hours later (9:00 next morning, Day 1) by gavage administration. A total of 350 μl were administered, containing the different components in the desired concentrations in PBS. Food was returned 2 h after APAP administration (Day 1). For all groups, mice were weighted daily, and blood samples were taken 24 h hours after APAP administration (Day 2). Serum levels of the liver enzymes aspartate aminotransferase (AST) and alanine aminotransferase (ALT) were measured using a Reflovet® Plus clinical chemistry analyzer (Roche Diagnostics, GmbH, Mannheim, Germany). Serum samples were diluted before the measurements, as needed.
The following combinations were tested using the same procedure described in Example 1 above, and compared to 4 mg APAP+3 or 3.5 mg NAC: […]
This combination was tested for its effect on toxicity induced by APAP using the procedure described in Example 1 above. […]
Mice were treated according to the procedure describe in Example 1 above.

[3] = Body weight of fasted mice given APAP (weight ratio / difference between days); assay type: in vivo
Description: Table 9 presents the effect of each combination on body weight loss, as determined by the ratio of the mice body weight between Day 0 and Day 2.
Table 12 presents the effect of each combination on body weight loss, as determined by the ratio of the mice body weight between Day 0 and Day 2 and by the difference in the mice body weight between Day 1 (immediately after administration of APAP with the different combinations and before food was returned) and Day 2.
Table 18 presents the effect of each combination on body weight, as determined by the difference in the mice body weight between Day 1 (immediately after administration of APAP with the different combinations and before food was returned) and Day 2.
This combination was tested for its effect on toxicity induced by APAP using the procedure described in Example 1 above with several modifications, as described below. Mice were allocated into four groups of six mice each, as detailed in Table 19 below. Food was taken on the afternoon (18:00) of Day 0. Mice were orally administered APAP 15 hours later (9:00 next morning, Day 1) by gavage administration. NAC was administered PO with APAP. MSM+IB were administered 1.5 h later. Following another 1.5 h, PC was administered. Food was returned 3.5 h after APAP administration (Day 1). Weight was determined three times: on Day 0 before food was taken, after over-night fasting (Day 1, just before APAP administration) and before sacrifice (Day 2, 24 hours after APAP administration).

[4] = test system: ConA-activated splenocytes; test: IFN-γ secretion by ConA-activated splenocytes from treated mice (ELISA); assay type: cell-based; conditions: FIG. 5; groups A, B, C, D of Table 24; 5 μg ConA, 20 h; p=NS
Experimental: After mice were sacrificed, spleens from five mice from each group were taken and splenocytes were isolated by the following procedure: Isolation of splenocytes: Spleens were stored in RPMI-1640 medium supplemented with FCS. Spleens were crushed through a 70-μm nylon cell strainer (Falcon) and centrifuged (1,250 rpm for 7 min.). Red blood cells were lysed in 1 ml of cold 155 mM ammonium chloride lysis buffer. Splenocytes were washed and resuspended in 1 ml of RPMI supplemented with FCS. The viability of cells as assessed by trypan blue exclusion exceeded 90%. Next, splenocytes (1×10^6 per mouse, per well, in duplicates) were moved into a 24 well plate containing RPMI-1640 supplemented with 10% FCS, 1% penicillin/streptomycin (P/S), 1% glutamine, 1% sodium pyruvate and 1% non-essential amino acid. […] After incubation cells from all wells were moved to Eppendorff tubes and centrifuged for 5 minutes. Then supernatants were collected and freezed in −80° C. until assayed for IFN-γ by ELISA. Cytokine determination: Levels of IFN-γ were determined by “sandwich” ELISA using commercial kit according to the manufacturer's instructions (Quantikine, R&D Systems, Minneapolis, Minn., USA).

[5] = Table 2, serum 24 h after APAP, PO, APAP 4 mg/mouse alone or + NAC 3 mg/mouse
[6] = Table 3, 24 h, PO, APAP 4 mg/mouse alone or + NAC 3 mg/mouse
[7] = Table 4, 24 h, PO, APAP 4 mg/mouse alone or + NAC 3.5 mg/mouse
[8] = Table 6, 24 h, PO, APAP 4 mg/mouse alone or + NAC 3.5 mg/mouse
[9] = Table 8, 24 h, PO, APAP 4 mg/mouse alone or + NAC 3 mg/mouse
[10] = Table 11, 24 h, PO, per mouse APAP 4 mg, NAC 3.5 mg, PC 0.9 mg after 3 h
[11] = Table 14, 24 h, PO, APAP 4 mg/mouse alone or + NAC 3.5 mg, PC 0.9 mg after 3 h
[12] = Table 14, 24 h, PO, APAP 4.6 mg/mouse alone or + NAC 3.5 mg, PC 0.9 mg after 3 h
[13] = Table 17, 24 h, PO, per mouse APAP 4 mg, NAC 3.5 mg, MSM 1.5 mg
[14] = Table 20, 24 h, PO, APAP 7 mg/mouse alone or + NAC 3.5 mg/mouse
[15] = Table 23, 24 h, PO, per mouse APAP 4 mg, MSM 0.15 mg, IB 0.1 mg
[16] = Table 27, 24 h, PO, per mouse APAP 4.6 mg, NAC/Cys/Met 3.5 mg, PC 0.9 mg, MSM 0.2 mg, IB 0.1 mg
[17] = Table 30, APAP 4.6 mg with NAC/Cys/Met 3.5 mg, MSM 0.1 mg + IB 0.1 mg after 1.5 h, PC 0.9 mg after 3 h
[18] = Table 33, 24 h, PO, per mouse APAP 4.6 mg, NAC/Cys/Met 3.5 mg
[19] = Table 12, per mouse APAP 4 mg, NAC 3.5 mg, PC 0.9 mg after 3 h
[20] = Table 15, APAP 4 mg/mouse alone or + NAC 3.5 mg, PC 0.9 mg after 3 h
[21] = Table 15, APAP 4.6 mg/mouse alone or + NAC 3.5 mg, PC 0.9 mg after 3 h
[22] = Table 21, APAP 7 mg/mouse alone or + NAC 3.5 mg/mouse

## CC(=O)Nc1ccc(O)cc1 [APAP, N-(4-hydroxyphenyl)acetamide]
[1]; FIG. 1, groups of Table 5, 24 h after APAP 4 mg/mouse
  histological liver sections: diffuse damage to hepatocytes
[1]; FIG. 2, groups of Table 7, 24 h after APAP 4 mg/mouse
  histological liver sections: diffuse damage to hepatocytes
[1]; FIG. 3, groups of Table 10, 24 h after APAP 4 mg/mouse
  histological liver sections: diffuse damage to hepatocytes
[1]; FIG. 4, groups of Table 16, 24 h after APAP 4 mg/mouse
  histological liver sections: diffuse damage to hepatocytes
[1]; FIG. 6, groups of Table 26, 24 h after APAP 4.6 mg/mouse
  histological liver sections: diffuse damage to hepatocytes
[1]; FIG. 7, groups of Table 29, 24 h after APAP 4.6 mg/mouse
  histological liver sections: diffuse damage to hepatocytes
[1]; FIG. 8, groups of Table 32, 24 h after APAP 4.6 mg/mouse
  histological liver sections: diffuse damage to hepatocytes
[2]; [5]
  ALT (average ± std. dev.): 14,360 ± 4,370.52 IU/L
  AST (average ± std. dev.): 18,920.00 ± 12,192.04 IU/L
[2]; [6]
  ALT (average ± std. dev.): 5,617.50 ± 1,832.77 IU/L
  AST (average ± std. dev.): 3,672.67 ± 1,965.99 IU/L
[2]; [7]
  ALT (average ± std. dev.): 8,880.00 ± 2,624.31 IU/L
  AST (average ± std. dev.): 5,848.67 ± 1,993.43 IU/L
[2]; [8]
  ALT (average ± std. dev.): 7,790.0 ± 2,175.9 IU/L
  AST (average ± std. dev.): 4,883.3 ± 1,549.4 IU/L
[2]; [9]
  ALT (average ± std. dev.): 6,421.67 ± 2,914.38 IU/L
  AST (average ± std. dev.): 3,686.67 ± 2,168.08 IU/L
[2]; [10]
  ALT (average ± std. dev.): 7,530.00 ± 2,339.06 IU/L
  AST (average ± std. dev.): 4,988.67 ± 878.44 IU/L
[2]; [11]
  ALT (average ± std. dev.): 5,739.25 ± 2,536.44 IU/L
  AST (average ± std. dev.): 4,374.00 ± 2,384.21 IU/L
[2]; [12]
  ALT (average ± std. dev.): 7,772.50 ± 1,771.00 IU/L
  AST (average ± std. dev.): 6,310.00 ± 2,127.07 IU/L
[2]; [13]
  ALT (average ± std. dev.): 9,040 ± 3,472.64 IU/L
  AST (average ± std. dev.): 6,560 ± 2,618.34 IU/L
[2]; [14]
  ALT (average ± std. dev.): 20,160.00 ± 9,678.28 IU/L
  AST (average ± std. dev.): 20,001.00 ± 11,998.16 IU/L
[2]; [15]
  ALT (average ± std. dev.): 8,918.00 ± 2,955.74 IU/L
  AST (average ± std. dev.): 6,586.67 ± 4,204.58 IU/L
[2]; Table 25, 24 h, PO, per mouse APAP 4 mg, MSM 0.25 mg, IB 0.1 mg
  AST (average ± std. dev.): 4,303.33 ± 2,163.30 IU/L
[2]; [16]
  ALT (average ± std. dev.): 10285.00 ± 4435.22 IU/L
  AST (average ± std. dev.): 7796.00 ± 5000.46 IU/L
[2]; [17]
  ALT (average ± std. dev.): 11210.83 ± 7589.19 IU/L
  AST (average ± std. dev.): 10577.33 ± 11375.63 IU/L
[2]; [18]
  ALT (average ± std. dev.): 9002.50 ± 4211.03 IU/L
  AST (average ± std. dev.): 5684.00 ± 2307.64 IU/L
[3]; Example 4, Table 9, APAP 4 mg/mouse only
  decrease in body weight during the two days of the experiment: 6%
[3]; Example 8, Table 28, APAP 4.6 mg only
  decrease in body weight during the two days of the experiment: more than 8%
[3]; Example 8, Table 31, APAP 4.6 mg only
  decrease in body weight during the two days of the experiment: more than 8%
[3]; Example 8, Table 34, APAP 4.6 mg only
  decrease in body weight during the two days of the experiment: more than 6%
[3]; Table 9, APAP 4 mg/mouse alone or + NAC 3 mg/mouse, PO
  Weight ratio Day 0-Day 2: 94.17%
[3]; [19]
  Weight difference Day 1 − Day 2: 1.17
  Weight ratio Day 1-Day 2: 105%
[3]; [20]
  Weight difference Day 1 − Day 2: 2.07
  Weight ratio Day 1-Day 2: 108%
[3]; [21]
  Weight difference Day 1 − Day 2: 1.02
  Weight ratio Day 1-Day 2: 104%
[3]; Table 18, per mouse APAP 4 mg, NAC 3.5 mg, MSM 1.5 mg
  Weight difference Day 1 − Day 2: 1.05
[3]; [22]
  Weight difference Day 1 − Day 2: −0.45
  Weight ratio Day 1-Day 2: 98%
[3]; Table 28, per mouse APAP 4.6 mg, NAC/Cys/Met 3.5 mg, PC 0.9 mg, MSM 0.2 mg, IB 0.1 mg
  Weight ratio Day 0-Day 2: 91.59%
[3]; Table 31, APAP 4.6 mg with NAC/Cys/Met 3.5 mg, MSM 0.1 mg + IB 0.1 mg after 1.5 h, PC 0.9 mg after 3 h
  Weight ratio Day 0-Day 2: 91.23%
[3]; Table 34, per mouse APAP 4.6 mg, NAC/Cys/Met 3.5 mg
  Weight ratio Day 0-Day 2: 93.26%
[4]
  IFN-γ levels secreted by ConA-activated splenocytes: 259 pg/mL

## COc1cc([C@H]2Oc3ccc([C@H]4Oc5cc(O)cc(O)c5C(=O)[C@@H]4O)cc3O[C@@H]2CO)ccc1O [IA, Isosilybin A]
[2]
  effect on liver enzymes serum levels: ineffective in reducing liver enzymes serum levels
  beneficial effect on acetaminophen-induced liver toxicity: did not show a beneficial effect

## COc1cc([C@@H]2Oc3cc([C@H]4Oc5cc(O)cc(O)c5C(=O)[C@@H]4O)ccc3O[C@H]2CO)ccc1O [silybin B]
[2]
  effect on liver enzymes serum levels: ineffective in reducing liver enzymes serum levels
  beneficial effect on acetaminophen-induced liver toxicity: did not show a beneficial effect

— patent US9474763B2, “Compositions and methods for amelioration and prevention of drug-induced toxicity” (priority 2012, dated 2016)
